The source of these data is ChEMBL document CHEMBL1157938, “Cytotoxicity and inhibition of DNA topoisomerase I of polyhydroxylated triterpenoids and triterpenoid glycosides” (Bioorg Med Chem Lett, 2010).

The target in data set [1] is T1, DNA topoisomerase 1 (Homo sapiens) (UniProt P11387).
T1 sequence (whole entry): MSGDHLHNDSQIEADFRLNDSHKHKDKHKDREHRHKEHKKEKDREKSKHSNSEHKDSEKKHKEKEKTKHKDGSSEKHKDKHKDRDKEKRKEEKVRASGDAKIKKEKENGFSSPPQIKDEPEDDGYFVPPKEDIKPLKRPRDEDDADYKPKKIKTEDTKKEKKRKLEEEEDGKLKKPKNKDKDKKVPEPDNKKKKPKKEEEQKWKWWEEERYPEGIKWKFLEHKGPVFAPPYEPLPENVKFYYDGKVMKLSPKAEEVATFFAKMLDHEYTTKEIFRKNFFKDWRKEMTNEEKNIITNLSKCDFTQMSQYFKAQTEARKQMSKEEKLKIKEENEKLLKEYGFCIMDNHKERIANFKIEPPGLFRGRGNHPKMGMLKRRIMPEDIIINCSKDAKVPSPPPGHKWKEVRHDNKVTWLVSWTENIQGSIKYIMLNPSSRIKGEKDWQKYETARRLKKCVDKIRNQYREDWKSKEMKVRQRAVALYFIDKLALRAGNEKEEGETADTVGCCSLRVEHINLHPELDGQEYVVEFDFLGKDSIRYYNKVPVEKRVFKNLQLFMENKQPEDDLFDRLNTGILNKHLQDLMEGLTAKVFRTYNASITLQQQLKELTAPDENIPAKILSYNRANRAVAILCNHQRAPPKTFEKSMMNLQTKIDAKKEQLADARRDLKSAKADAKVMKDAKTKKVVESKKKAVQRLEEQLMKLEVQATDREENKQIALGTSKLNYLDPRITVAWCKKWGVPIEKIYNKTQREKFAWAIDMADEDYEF
Kind of data set: Inhibition of human DNA topoisomerase 1-mediated relaxation of supercoiled DNA at 450 uM.

The test system of the next data set is PANC-1. Kind of data set: Cytotoxicity against human PANC1 cells after 48 hrs by WST8 assay. The class given is functional. As to conditions: PANC-1, 48 h. Background: Tetrazolium dyes change colour on reduction, which living cells bring about.
The target in data set [2] is DNA topoisomerase 2-alpha (Homo sapiens, UniProt P11388). Kind of data set: Inhibition of human DNA topoisomerase 2-mediated relaxation of supercoiled DNA by gel electrophoresis.
Data set [3] deals with T2, DNA topoisomerase 1 (Homo sapiens, UniProt P11387).
T2 sequence (P11387 whole entry): T1 sequence (whole entry)
Kind of data set: Inhibition of human DNA topoisomerase 1 at free enzyme state.

The test system of a further data set is HL-60. The data set can be described thus: Cytotoxicity against human HL60 cells after 48 hrs by WST8 assay. The class given is functional. To be noted: HL-60, 48 h.
In data set [4] the target is T1, DNA topoisomerase 1 (Homo sapiens). Kind of data set: Inhibition of human DNA topoisomerase 1 assessed as stabilize DNA-enzyme covalent complex.
The target is the same in data set [5]. Kind of data set: Inhibition of human DNA topoisomerase 1-mediated relaxation of supercoiled DNA at 312 uM.
For data set [6], the target named is T2, DNA topoisomerase 1. Kind of data set: Inhibition of human DNA topoisomerase 1-mediated relaxation of supercoiled DNA by gel electrophoresis.
The test system of the next data set is A549. Kind of data set: Cytotoxicity against human A549 cells after 48 hrs by WST8 assay. To be noted: A549, 48 h. It counts as functional.
The test system of another data set is PC-3. Kind of data set: Cytotoxicity against human PC3 cells after 48 hrs by WST8 assay. The class given is functional. To be noted: PC-3, 48 h.
Data set [7] is described as follows: Cytotoxicity against human MRC5 cells after 48 hrs by WST8 assay. It counts as cell-based.
The target of data set [8] is T1, DNA topoisomerase 1 (Homo sapiens). The data set can be described thus: Inhibition of human DNA topoisomerase 1 assessed as intercalate into DNA at 312 uM.
The target is the same in data set [9]. Kind of data set: Inhibition of human DNA topoisomerase 1 assessed as prevention of DNA-enzyme complex formation.
The target is the same in data set [10]. The data set can be described thus: Inhibition of human DNA topoisomerase 1-mediated relaxation of supercoiled DNA at 63 uM.
The target is the same in data set [11]. Kind of data set: Inhibition of human DNA topoisomerase 1-mediated relaxation of supercoiled DNA at 63 to 125 uM.
The target in data set [12] is T3, DNA topoisomerase 1 (Rattus norvegicus, UniProt Q9WUL0).
T3 sequence (Q9WUL0 whole entry): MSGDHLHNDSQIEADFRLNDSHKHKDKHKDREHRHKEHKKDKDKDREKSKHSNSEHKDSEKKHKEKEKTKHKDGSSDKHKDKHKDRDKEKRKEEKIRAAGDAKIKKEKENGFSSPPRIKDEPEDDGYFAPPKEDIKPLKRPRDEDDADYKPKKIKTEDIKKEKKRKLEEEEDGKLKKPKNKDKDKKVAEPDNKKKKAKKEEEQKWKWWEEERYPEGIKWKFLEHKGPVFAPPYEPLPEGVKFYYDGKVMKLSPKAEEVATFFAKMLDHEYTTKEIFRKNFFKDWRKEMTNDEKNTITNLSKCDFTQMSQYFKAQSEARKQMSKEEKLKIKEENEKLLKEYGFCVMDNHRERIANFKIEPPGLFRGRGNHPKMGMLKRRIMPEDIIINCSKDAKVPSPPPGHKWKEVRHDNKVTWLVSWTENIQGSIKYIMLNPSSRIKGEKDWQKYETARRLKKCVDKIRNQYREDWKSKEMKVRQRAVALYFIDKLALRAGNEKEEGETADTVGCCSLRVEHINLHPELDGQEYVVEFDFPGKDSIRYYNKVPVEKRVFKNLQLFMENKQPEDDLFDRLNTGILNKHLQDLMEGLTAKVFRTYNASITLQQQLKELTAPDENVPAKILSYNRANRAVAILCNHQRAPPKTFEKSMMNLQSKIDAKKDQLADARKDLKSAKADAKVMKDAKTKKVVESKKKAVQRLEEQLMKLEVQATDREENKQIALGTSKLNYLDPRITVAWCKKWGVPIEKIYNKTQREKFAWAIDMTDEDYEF
The data set can be described thus: Inhibition of rat liver DNA topoisomerase 1 preincubated before addition of DNA.

Data set [13] in a line: Inhibition of Leishmania donovani DNA topoisomerase 1 treated simultaneously with DNA.
Data set [14] addresses T3, DNA topoisomerase 1. The data set can be described thus: Inhibition of rat liver DNA topoisomerase 1 treated simultaneously with DNA.
The nature of data set [15]: Inhibition of Leishmania donovani DNA topoisomerase 1 preincubated before addition of DNA.

pIC50: −log10 of the molar value. Active and inactive are the calls of the source. The calls are words filed in the database; no cut-off is given here.

Chain of DNA topoisomerase 2-alpha (P11388 whole entry): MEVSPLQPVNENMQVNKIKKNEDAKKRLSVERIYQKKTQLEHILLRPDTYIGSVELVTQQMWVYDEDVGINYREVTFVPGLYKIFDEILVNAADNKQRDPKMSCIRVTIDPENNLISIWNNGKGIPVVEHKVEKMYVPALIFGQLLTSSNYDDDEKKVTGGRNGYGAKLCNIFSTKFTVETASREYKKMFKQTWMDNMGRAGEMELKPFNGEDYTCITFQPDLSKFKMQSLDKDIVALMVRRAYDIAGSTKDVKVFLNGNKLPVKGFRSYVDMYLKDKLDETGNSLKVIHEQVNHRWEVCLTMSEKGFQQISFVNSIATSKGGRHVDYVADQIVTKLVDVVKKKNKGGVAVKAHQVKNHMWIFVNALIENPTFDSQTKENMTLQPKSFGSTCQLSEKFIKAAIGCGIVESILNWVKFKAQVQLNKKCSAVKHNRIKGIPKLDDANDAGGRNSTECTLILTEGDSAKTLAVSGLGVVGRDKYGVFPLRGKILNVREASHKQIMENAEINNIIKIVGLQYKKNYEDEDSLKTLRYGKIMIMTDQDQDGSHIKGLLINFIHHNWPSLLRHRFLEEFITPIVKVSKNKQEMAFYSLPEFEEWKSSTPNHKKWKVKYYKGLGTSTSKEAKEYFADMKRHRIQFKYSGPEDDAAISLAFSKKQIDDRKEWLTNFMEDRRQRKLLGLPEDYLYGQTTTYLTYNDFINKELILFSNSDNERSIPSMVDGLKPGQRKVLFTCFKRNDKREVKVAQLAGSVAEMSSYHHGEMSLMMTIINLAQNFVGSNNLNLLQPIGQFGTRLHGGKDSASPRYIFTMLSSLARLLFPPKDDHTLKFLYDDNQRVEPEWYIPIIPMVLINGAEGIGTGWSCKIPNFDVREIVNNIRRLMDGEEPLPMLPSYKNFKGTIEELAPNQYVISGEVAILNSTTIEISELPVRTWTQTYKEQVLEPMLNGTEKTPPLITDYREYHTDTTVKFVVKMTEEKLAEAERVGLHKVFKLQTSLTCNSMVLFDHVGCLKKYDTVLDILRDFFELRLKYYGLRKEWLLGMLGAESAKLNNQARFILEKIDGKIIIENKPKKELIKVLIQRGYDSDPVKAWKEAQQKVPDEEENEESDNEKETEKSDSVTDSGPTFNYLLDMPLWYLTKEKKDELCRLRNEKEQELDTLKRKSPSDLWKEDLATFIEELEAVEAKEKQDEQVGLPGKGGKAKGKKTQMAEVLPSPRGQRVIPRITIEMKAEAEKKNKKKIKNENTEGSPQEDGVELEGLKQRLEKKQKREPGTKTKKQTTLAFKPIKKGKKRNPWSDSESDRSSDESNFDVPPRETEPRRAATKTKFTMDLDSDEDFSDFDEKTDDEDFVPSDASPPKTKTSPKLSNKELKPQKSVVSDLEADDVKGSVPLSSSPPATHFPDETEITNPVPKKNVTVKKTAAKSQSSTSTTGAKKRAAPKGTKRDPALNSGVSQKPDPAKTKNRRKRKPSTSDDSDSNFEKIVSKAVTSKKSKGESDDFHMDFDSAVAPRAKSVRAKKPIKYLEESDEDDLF

As to `C/C=C(/C)C(=O)O[C@H]1[C@H](O)[C@]2(CO)[C@H](O)C[C@]3(C)C(=CC[C@@H]4[C@@]5(C)CC[C@H](O[C@@H]6O[C@H](C(=O)O)[C@@H](O)[C@H](O[C@@H]7O[C@@H](CO)[C@H](O)[C@H]7O)[C@H]6O)[C@](C)(CO)[C@@H]5CC[C@]43C)[C@@H]2CC1(C)C` [AESCULIOSIDE IID], the inhibition entry in data set [1], in data set [9] and in data set [10] was “Active” in each case. The GI50 (usually the concentration at which growth is held to half of that of the control) amounted to 10.3 µM in the data set with PANC-1, 7.5 µM in the data set with HL-60, 12.9 µM with A549 and 5.51 µM with PC-3. Moreover, the figures for the pIC50 (in data set [2]; against DNA topoisomerase 1 [3]; against DNA topoisomerase 1 [6]) were under 3.60, 4.62 and 4.62, respectively. Besides, the inhibition entry in data set [4] and in [5] was “inactive” in each case. For the same compound, in [7], the GI50 at 48 h amounted to 15.4 µM. The outcome in [8] was Active.

`C/C=C(/C)C(=O)O[C@H]1[C@H](OC(=O)/C(C)=C\C)[C@]2(CO)[C@H](O)C[C@]3(C)C(=CC[C@@H]4[C@@]5(C)CC[C@H](O[C@@H]6O[C@H](C(=O)O)[C@@H](O)[C@H](O[C@@H]7O[C@@H](CO)[C@H](O)[C@H]7O)[C@H]6O[C@@H]6O[C@H](CO)[C@H](O)[C@H](O)[C@H]6O)C(C)(C)[C@@H]5CC[C@]43C)[C@@H]2CC1(C)C`: the GI50 in the data set on PANC-1 was 11.9 µM; in the data set with HL-60 it was 1.97 µM; in the data set on A549, 6.03 µM; in the data set on PC-3, 3.26 µM. Moreover, the negative-log IC50 (pIC50) (usually −log10 of the IC50, conventionally taken in molar units) in data set [2] is under 3.60; against DNA topoisomerase 1 [3], 4.62; on DNA topoisomerase 1 [6] it was 4.57. The inhibition entry in data set [4] is “inactive”. Further, the inhibition result in data set [11], in data set [9] and in data set [10] was “Active” throughout. In [7], the GI50 at 48 h was 7.43 µM.

With `O=c1cc(-c2ccc(O)c(O)c2)oc2cc(O)cc(O)c12` [LUTEOLIN], the pIC50 against DNA topoisomerase 1 [12] is 6.18; in [13], 4.85; on DNA topoisomerase 1 [14], 5.30; in data set [15], 5.60.
